Results reported in US12187756B2 (priority 2018, dated 2025).

Details: buffer

CC(=O)NC1[C@H](O[C@@H]2C(CO)O[C@H](O[C@H]3C(CO)O[C@@H](O[C@@H]4C(O)[C@@H](COP(=O)(O)OCCCCCN)OC(CO)[C@H]4O)C(NC(C)=O)[C@H]3O[C@@H]3OC(CO)[C@@H](O)[C@H](O)C3O)[C@@H](O)C2O)OC(CO)[C@H](O)[C@@H]1O[C@@H]1OC(CO)[C@@H](O)[C@H](O)C1O (stereo partly shown) [compound 33]
compound remaining intact (HPLC): 50%
